The compounds below were run on Ogataea polymorpha strain NBRC0799-derived carbonyl reductase (assay: Reactivity of purified Ogataea polymorpha strain NBRC0799-derived carbonyl reductase to substrates (reduction reaction, NADH decrease at 340 nm)). Conditions: (a) Reduction reaction; substrate 50 mM, NADH 0.1 mM, 168 mM sodium phosphate buffer pH 6.0, 30° C.; enzyme activity with acetone as substrate defined as 100%.
Assay type: biochemical
Procedure: For enzyme activity measurement, NADH was added at a final concentration of 0.1 mM to 168 mM sodium phosphate buffer (pH 6.0) containing an enzyme or a microorganism, and 1,1-difluoroacetone was added at a final concentration of 50 mM to this reaction solution to initiate the reaction (reaction solution volume: 1 mL). The reaction was conducted at 30° C., and decreases in NADH were monitored with a spectrophotometer (V-630BIO, JASCO Corporation, Japan) as changes in absorbance at 340 nm. It should be noted that the enzyme activity was determined assuming that the amount of enzyme required to catalyze the oxidation of 1 μmol NADH per minute was defined as 1 U (unit).
To 168 mM sodium phosphate buffer (pH 6.0) containing the enzyme purified from Ogataea polymorpha strain NBRC0799, NADH was added at a final concentration of 0.1 mM, and the substrates indicated in Table B below were each added at a final concentration of 50 mM to this reaction solution to initiate the reaction (reaction solution volume: I mL). The reaction was conducted at 30° C., and decreases in NADH were measured with a spectrophotometer (V-630BIO, JASCO Corporation, Japan) as changes in absorbance at 340 nm.
Relative activity refers to the ratio of enzyme activity (conversion speed) for each substrate in comparison with the enzyme activity when using acetone as a substrate, which is defined to be 100%. When 1,1-difluoroacetone or 1,1,1-trifluoroacetone is provided as a substrate, the conversion speed per se of the enzyme is reduced (many hours are required to complete the reaction). In the case of acetone, its two methyl groups are equal, so that acetone will be captured by a recognition site in the enzyme without distinction between these two methyl groups. However, in the case of 1,1-difluoroacetone and 1,1,1-trifluoroacetone, their capture by an active site in the enzyme would require recognition between a fluoromethyl group and a methyl group, so that the speed of their capture becomes slower. On the other hand, in the case of 1,3-difluoroacetone, the fluorine atoms introduced thereinto would alter electronegativity and so on, when compared to acetone.

| SMILES | Relative Activity (%) |
| --- | --- |
| CC(=O)C(F)(F)F [1,1,1-Trifluoroacetone] | 50 |
| CC(=O)C(F)F [1,1-Difluoroacetone] | 58 |
| O=C(CF)CF [1,3-Difluoroacetone] | 52 |
| CCC(C)=O [2-Butanone] | 132 |
| CC(=O)CC(F)(F)F [4,4,4-Trifluoro-2-butanone] | 228 |
| CC=O [Acetaldehyde] | 330 |
| CC(C)=O [Acetone, reference compound] | 100 |
| CCCC=O [Butyraldehyde] | 193 |
| CC(=O)CF [Fluoroacetone] | 211 |
| CCC=O [Propionaldehyde] | 141 |

Same assay, conditions: substrate 50 mM, NADH 0.1 mM, pH 6.0, 30° C.

| SMILES | conversion speed of the enzyme in comparison with acetone as a substrate |
| --- | --- |
| CC(=O)C(F)(F)F [1,1,1-Trifluoroacetone] | reduced |
| CC(=O)C(F)F [1,1-Difluoroacetone] | reduced |

— patent publication US20180105840A1, “PROCESS FOR INDUSTRIAL PRODUCTION OF CHIRAL-1,1-DIFLUORO-2-PROPANOL” (PUBLIC UNIVERSITY CORPORATION TOYAMA PREFECTURAL UNIVERSITY, priority 2015, published 2018)
